From patent US6680373B2, “P2U2 receptor antibodies” (Millennium Pharmaceuticals, Inc., priority 1995, dated 2004)

Target: T1, P2U2 receptor (Homo sapiens, UniProt Q9BXA5)
T1 construct: The native human receptor was produced in oocytes by cloning the 500 bp 5′ truncation of the full-length kidney cDNA clone; expressed in transfected cells; host or cells: Xenopus laevis oocytes injected with capped in vitro transcribed RNA (pcDNA3 template, T7 polymerase)
T1 sequence (Q9BXA5 1-334): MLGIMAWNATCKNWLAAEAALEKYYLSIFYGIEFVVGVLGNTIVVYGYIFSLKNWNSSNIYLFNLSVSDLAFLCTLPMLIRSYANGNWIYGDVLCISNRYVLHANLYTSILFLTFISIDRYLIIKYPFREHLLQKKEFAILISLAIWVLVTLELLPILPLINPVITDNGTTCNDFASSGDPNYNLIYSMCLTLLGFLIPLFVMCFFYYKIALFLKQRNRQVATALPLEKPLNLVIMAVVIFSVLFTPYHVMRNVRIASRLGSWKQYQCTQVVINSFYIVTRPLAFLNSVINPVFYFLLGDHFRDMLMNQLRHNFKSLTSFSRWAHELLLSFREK
Assay: Two-electrode voltage clamp of agonist-induced chloride currents in Xenopus oocytes injected with P2U2 receptor cRNA
Format: cell-based
Settings: receptor expressed in Xenopus oocytes; for order of specificity as agonists of the P2U2 receptor: potencies close in value, a mere five-fold difference
Description: As indicated above, receptor activation can also be measured by means of the two-electrode voltage clamp assay. In this assay, agonist-induced inward chloride currents are measured in voltage-clamped oocytes that express the P2U2 receptor. The technique suitable for use in the instant invention is described by Julius, et al, Science 241:558-563 (1988). The native human receptor was produced in oocytes by cloning the 500 bp 5' truncation of the full-length kidney cDNA clone into the mammalian expression vector pcDNA3 (Invitrogen). Linearized DNA was used as a template for T7 polymerase (Ambion, Promega) for generation of capped in vitro transcribed mRNA following the suppliers specifications. Adult female Xenopus laevis were anesthetized in […] 3-aminobenzoic acid ethyl ester for 10 minutes and 1 or 2 ovarian lobes were removed, followed by immediate suturing of the incisions. Oocytes were defolliculated at room temperature with collagenase (2 mg/ml) in Ca^+2-free medium (OR-2) for 1-2 hr. Oocytes were stored at […] in ND-96 (96 mM sodium chloride, 2 mM potassium chloride, 1.8 mM calcium chloride, 1 mM magnesium chloride, 5 mM HEPES (N[2-hydroxyethylpiperazine-N'[2-ethanesulfonic acid) with penicillin/streptomycin and injected with 50 nl RNA (1-2 μg/μl) 18-24 h after removal of the oocytes. Before recording, injected oocytes were stored at 18° C. for 2-3 days with daily media changes. A two-electrode voltage clamp (Axon Axoclamp2B) was used to measure agonist-induced currents from individual oocytes. Electrodes were pulled to […] of 0.2-1 MΩ and filled with 3M KCl. Recordings were made at room temperature in ND96 from oocytes clamped at -70 mV using different agonist concentrations. Water-injected oocytes were used as a control.

## O=c1ccn([C@@H]2O[C@H](COP(=O)(O)OP(=O)(O)OP(=O)(O)O)[C@@H](O)[C@H]2O)c(=O)[nH]1 [UTP]
  activation of the P2U2 receptor: activated
  order of specificity as agonists of the P2U2 receptor: UTP>UDP>ADP>ATP

## O=c1ccn([C@@H]2O[C@H](COP(=O)(O)OP(=O)(O)O)[C@@H](O)[C@H]2O)c(=O)[nH]1 [UDP]
  activation of the P2U2 receptor: activated
  order of specificity as agonists of the P2U2 receptor: UTP>UDP>ADP>ATP

## Nc1ncnc2c1ncn2[C@@H]1O[C@H](COP(=O)(O)OP(=O)(O)OP(=O)(O)O)[C@@H](O)[C@H]1O [ATP]
  activation of the P2U2 receptor: activated
  order of specificity as agonists of the P2U2 receptor: UTP>UDP>ADP>ATP

## Nc1ncnc2c1ncn2[C@@H]1O[C@H](COP(=O)(O)OP(=O)(O)O)[C@@H](O)[C@H]1O [ADP]
  activation of the P2U2 receptor: activated
  order of specificity as agonists of the P2U2 receptor: UTP>UDP>ADP>ATP
